In ChEMBL document CHEMBL1126956, “Synthesis and biological evaluation of cholecystokinin analogs in which the Asp-Phe-NH2 moiety has been replaced by a 3-amino-7-phenylheptanoic acid or a 3-amino-6-(phenyloxy)hexanoic acid” (J Med Chem, 1993):
Where a SMILES comes first, the peptide text is derived from it. [ ]: non-standard residue; d: D form. The star is where a group is joined. sY = N[C@@H](Cc1ccc(OS(=O)(=O)O)cc1)C(=O)O; NHPhenethyl = c1ccc(CCN*)cc1; OCH2CH2Ph = c1ccc(CCO*)cc1; Nle = CCCC[C@H](N)C(=O)O; Boc = CC(C)(C)OC(=O)*

Tests used:
[1] = molecular target: T1, Gastrin/cholecystokinin type B receptor (Homo sapiens, UniProt P32239); assay: Inhibition of [125I]BH-CCK- binding to cholecystokinin type B receptor from jurkat Tcells; type: cell-based
T1 sequence (P32239 whole entry): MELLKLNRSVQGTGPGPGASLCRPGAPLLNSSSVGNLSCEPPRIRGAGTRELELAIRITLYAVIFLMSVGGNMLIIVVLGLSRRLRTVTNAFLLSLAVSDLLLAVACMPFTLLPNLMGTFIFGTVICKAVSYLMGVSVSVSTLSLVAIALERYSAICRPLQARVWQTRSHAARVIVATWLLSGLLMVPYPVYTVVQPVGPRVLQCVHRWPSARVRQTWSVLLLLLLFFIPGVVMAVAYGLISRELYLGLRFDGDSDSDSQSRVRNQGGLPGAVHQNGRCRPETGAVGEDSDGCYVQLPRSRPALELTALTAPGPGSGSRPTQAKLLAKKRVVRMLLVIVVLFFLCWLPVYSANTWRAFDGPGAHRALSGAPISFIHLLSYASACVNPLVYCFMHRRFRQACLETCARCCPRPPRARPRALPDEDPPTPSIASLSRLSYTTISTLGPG

[2] = molecular target: Cholecystokinin receptor type A (Rattus norvegicus) (UniProt P30551); assay: Inhibition of [125I]BH-CCK- binding to peripheral cholecystokinin type A receptor from rat pancreatic acini
[3] = molecular target: Gastrin/cholecystokinin type B receptor (Cavia porcellus); assay: Inhibition of [125I]BH-CCK- binding to cholecystokinin type B receptor from guinea pig brain membranes

Structure (SMILES) | IC50 [1] | IC50 [2] | IC50 [3]
CCCC[C@H](NC(=O)[C@@H](Cc1c[nH]c2ccccc12)NC(=O)CNC(=O)[C@H](CCSC)NC(=O)[C@H](Cc1ccc(OS(=O)(=O)O)cc1)NC(=O)OC(C)(C)C)C(=O)N[C@@H](CC(=O)O)C(=O)OCCc1ccccc1 | 210 nM | – | –
CCCC[C@H](NC(=O)[C@H](Cc1ccc(OS(=O)(=O)O)cc1)NC(=O)OC(C)(C)C)C(=O)NCC(=O)N[C@@H](Cc1c[nH]c2ccccc12)C(=O)N[C@@H](CCCC)C(=O)N[C@@H](CC(=O)O)C(=O)NCCc1ccccc1 (Boc-[sY][Nle]GW[Nle]D-NHPhenethyl) | 13 nM | 30 nM | 10 nM
CCCC[C@H](NC(=O)[C@H](Cc1ccc(OS(=O)(=O)O)cc1)NC(=O)OC(C)(C)C)C(=O)NCC(=O)N[C@@H](Cc1c[nH]c2ccccc12)C(=O)N[C@@H](CCCC)C(=O)N[C@@H](CC(=O)O)C(=O)OCCc1ccccc1 (Boc-[sY][Nle]GW[Nle]D-OCH2CH2Ph) | 2 nM | 3 nM | –
